Experimental data taken from patent US10144706B2 (BRISTOL-MYERS SQUIBB COMPANY, priority 2016, dated 2018).
Read-outs that look alike come from different tables or passages of the source.

Target: T1, PD-1/PD-L1 interaction (PD-1-Ig / PD-L1-His) (Homo sapiens, UniProt Q9NZQ7)
T1 construct: hPDL1(18-239)-TVMV-His; TVMV protease site linker (C); made in house; host or cells: HEK293T
Assay: PD-1/PD-L1 Homogenous Time-Resolved Fluorescence (HTRF) binding assay
Conditions: PD-L1-His 10 nM, PD-1-Ig 20 nM, read-out: Range or IC50
Text: The ability of the compounds of formula (I) to bind to PD-L1 was investigated using a PD-1/PD-L1 Homogenous Time-Resolved Fluorescence (HTRF) binding assay.
Homogenous Time-Resolved Fluorescence (HTRF) Binding Assay.
The interaction of PD-1 and PD-L1 can be assessed using soluble, purified preparations of the extracellular domains of the two proteins. The PD-1 and PD-L1 protein extracellular domains were expressed as fusion proteins with detection tags, for PD-1, the tag was the Fc portion of Immunoglobulin (PD-1-Ig) and for PD-L1 it was the 6 histidine motif (PD-L1-His). All binding studies were performed in an HTRF assay buffer consisting of dPBS supplemented with 0.1% […] bovine serum albumin and 0.05% (v/v) Tween-20. For the h/PD-L1-His binding assay, inhibitors were pre-incubated with PD-L1-His (10 nM final) for 15 m in 4 μl of assay buffer, followed by addition of PD-1-Ig (20 nM final) in 1 μl of assay buffer and further incubation for 15 m. HTRF detection was achieved using europium crypate-labeled anti-Ig (1 nM final) and allophycocyanin (APC) labeled anti-His (20 nM final). Antibodies were diluted in HTRF detection buffer and 5 μl was dispensed on top of the binding reaction. […] Additional binding assays were established between the human proteins PD-1-Ig/PD-L2-His (20 & 5 nM, respectively) and CD80-His/PD-L1-Ig (100 & 10 nM, respectively). […]

T1 sequence (Q9NZQ7 with tags, fused parts or gaps): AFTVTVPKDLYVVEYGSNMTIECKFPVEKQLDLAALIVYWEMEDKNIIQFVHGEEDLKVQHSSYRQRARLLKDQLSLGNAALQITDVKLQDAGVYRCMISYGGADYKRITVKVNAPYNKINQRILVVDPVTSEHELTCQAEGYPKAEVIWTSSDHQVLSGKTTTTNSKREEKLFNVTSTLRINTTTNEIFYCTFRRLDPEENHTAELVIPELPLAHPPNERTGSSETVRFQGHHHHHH

Structure (SMILES) | IC50 (IC50 range class) [µM] | IC50 (numeric IC50) [µM]
Cc1c(OCCCN2CC[C@@H](O)C2)cccc1-c1cccc(OCCCN2C[C@H](O)C[C@H]2C(=O)O)c1C [Example 2039, (2S,4R)-4-hydroxy-1-(3-((3′-(3-((R)-3-hydroxypyrrolidin-1-yl)propoxy)-2,2′-dimethyl-[1,1′-biphenyl]-3-yl)oxy)propyl)pyrrolidine-2-carboxylic acid] | 1 to 10 | 
Cc1c(OCCCNCC2CCN(C)CC2)cccc1-c1cccc(OCCCN2CC[C@@H](O)C2)c1C [Example 2044, (R)-1-(3-((2,2′-dimethyl-3′-(3-(((1-methylpiperidin-4-yl)methyl)amino)propoxy)-[1,1′-biphenyl]-3-yl)oxy)propyl)pyrrolidin-3-ol] | 0.0901 to 1 | 
Cc1c(OCCCNC[C@H](O)C(=O)O)cccc1-c1cccc(OCCCN2CC[C@@H](O)C2)c1C [Example 2045, (S)-2-hydroxy-3-((3-((3′-(3-((R)-3-hydroxypyrrolidin-1-yl)propoxy)-2,2′-dimethyl-[1,1′-biphenyl]-3-yl)oxy)propyl)amino)propanoic acid] | 0.0901 to 1 | 
Cc1c(OCCCNC(CO)c2ccncc2)cccc1-c1cccc(OCCCN2CC[C@@H](O)C2)c1C (stereo partly drawn) [Example 2047, (3R)-1-(3-((3′-(3-((2-hydroxy-1-(pyridin-4-yl)ethyl)amino)propoxy)-2,2′-dimethyl-[1,1′-biphenyl]-3-yl)oxy)propyl)pyrrolidin-3-ol] | 0.0901 to 1 | 
Cc1c(OCCCN(C)Cc2cccnc2)cccc1-c1cccc(OCCCN2CC[C@@H](O)C2)c1C [Example 2049, (R)-1-(3-((2,2′-dimethyl-3′-(3-(methyl(pyridin-3-ylmethyl)amino)propoxy)-[1,1′-biphenyl]-3-yl)oxy)propyl)pyrrolidin-3-ol] | 0.0901 to 1 | 
Cc1c(OCCCNCc2cccnc2)cccc1-c1cccc(OCCCN2CC[C@@H](O)C2)c1C [Example 2050, (R)-1-(3-((2,2′-dimethyl-3′-(3-((pyridin-3-ylmethyl)amino)propoxy)-[1,1′-biphenyl]-3-yl)oxy)propyl)pyrrolidin-3-ol] | 1 to 10 | 
Cc1c(OCCCNC[C@@H](O)CO)cccc1-c1cccc(OCCCN2CC[C@@H](O)C2)c1C [Example 2052, (R)-3-((3-((3′-(3-((R)-3-hydroxypyrrolidin-1-yl)propoxy)-2,2′-dimethyl-[1,1′-biphenyl]-3-yl)oxy)propyl)amino)propane-1,2-diol] | 0.0901 to 1 | 
CCCN(CCO)CCCOc1cccc(-c2cccc(OCCCN3CC[C@@H](O)C3)c2C)c1C [Example 2053, (R)-1-(3-((3′-(3-((2-hydroxyethyl)(propyl)amino)propoxy)-2,2′-dimethyl-[1,1′-biphenyl]-3-yl)oxy)propyl)pyrrolidin-3-ol] | 0.0901 to 1 | 
Cc1c(OCCCN[C@@H](CO)C(C)C)cccc1-c1cccc(OCCCN2CC[C@@H](O)C2)c1C [Example 2055, (R)-1-(3-((3′-(3-(((R)-1-hydroxy-3-methylbutan-2-yl)amino)propoxy)-2,2′-dimethyl-[1,1′-biphenyl]-3-yl)oxy)propyl)pyrrolidin-3-ol] | 0.0901 to 1 | 
Cc1c(OCCCN(Cc2ccccn2)Cc2ccccn2)cccc1-c1cccc(OCCCN2CC[C@@H](O)C2)c1C [Example 2056, (R)-1-(3-((3′-(3-(bis(pyridin-2-ylmethyl)amino)propoxy)-2,2′-dimethyl-[1,1′-biphenyl]-3-yl)oxy)propyl)pyrrolidin-3-ol] |  | 3.18
Cc1c(OCCCN[C@H](CO)c2ccccc2)cccc1-c1cccc(OCCCN2CC[C@@H](O)C2)c1C [Example 2057, (R)-1-(3-((3′-(3-(((S)-2-hydroxy-1-phenylethyl)amino)propoxy)-2,2′-dimethyl-[1,1′-biphenyl]-3-yl)oxy)propyl)pyrrolidin-3-ol] | 0.0901 to 1 | 
Cc1c(OCCCN[C@H](CO)C(C)C)cccc1-c1cccc(OCCCN2CC[C@@H](O)C2)c1C [Example 2058, (R)-1-(3-((3′-(3-(((S)-1-hydroxy-3-methylbutan-2-yl)amino)propoxy)-2,2′-dimethyl-[1,1′-biphenyl]-3-yl)oxy)propyl)pyrrolidin-3-ol] | 0.0901 to 1 | 
Cc1c(OCCCNC2CCN(C)CC2)cccc1-c1cccc(OCCCN2CC[C@@H](O)C2)c1C [Example 2066, (R)-1-(3-((2,2′-dimethyl-3′-(3-((1-methylpiperidin-4-yl)amino)propoxy)-[1,1′-biphenyl]-3-yl)oxy)propyl)pyrrolidin-3-ol] | 0.0901 to 1 | 
Cc1c(OCCCN(CCO)CCO)cccc1-c1cccc(OCCCN2CC[C@@H](O)C2)c1C [Example 2068, (R)-2,2′-((3-((3′-(3-(3-hydroxypyrrolidin-1-yl)propoxy)-2,2′-dimethyl-[1,1′-biphenyl]-3-yl)oxy)propyl)azanediyl)bis(ethan-1-ol)] | 0.0901 to 1 | 
Cc1c(OCCCN[C@@H](CO)c2ccccc2)cccc1-c1cccc(OCCCN2CC[C@@H](O)C2)c1C [Example 2069, (R)-1-(3-((3′-(3-(((R)-2-hydroxy-1-phenylethyl)amino)propoxy)-2,2′-dimethyl-[1,1′-biphenyl]-3-yl)oxy)propyl)pyrrolidin-3-ol] | 0.0901 to 1 | 

More lines, now with the values ahead:

IC50 (IC50 range class) [µM] | IC50 (numeric IC50) [µM] | Structure (SMILES)
0.0901 to 1 |  | Cc1c(OCCCNCCc2ccccc2)cccc1-c1cccc(OCCCN2CC[C@@H](O)C2)c1C [Example 2041, (R)-1-(3-((2,2′-dimethyl-3′-(3-(phenethylamino)propoxy)-[1,1′-biphenyl]-3-yl)oxy)propyl)pyrrolidin-3-ol]
0.0201 to 0.09 |  | Cc1c(OCCCNCCCO)cccc1-c1cccc(OCCCN2CC[C@@H](O)C2)c1C [Example 2042, (R)-1-(3-((3′-(3-((3-hydroxypropyl)amino)propoxy)-2,2′-dimethyl-[1,1′-biphenyl]-3-yl)oxy)propyl)pyrrolidin-3-ol]
0.0901 to 1 |  | Cc1c(OCCCNCCc2cn(C)cn2)cccc1-c1cccc(OCCCN2CC[C@@H](O)C2)c1C [Example 2043, (R)-1-(3-((2,2′-dimethyl-3′-(3-((2-(1-methyl-1H-imidazol-4-yl)ethyl)amino)propoxy)-[1,1′-biphenyl]-3-yl)oxy)propyl)pyrrolidin-3-ol]
0.0201 to 0.09 |  | Cc1c(OCCCNCC(C)(C)CO)cccc1-c1cccc(OCCCN2CC[C@@H](O)C2)c1C [Example 2046, (R)-1-(3-((3′-(3-((3-hydroxy-2,2-dimethylpropyl)amino)propoxy)-2,2′-dimethyl-[1,1′-biphenyl]-3-yl)oxy)propyl)pyrrolidin-3-ol]
0.0201 to 0.09 |  | CC(=O)NCCNCCCOc1cccc(-c2cccc(OCCCN3CC[C@@H](O)C3)c2C)c1C [Example 2048, (R)—N-(2-((3-((3′-(3-(3-hydroxypyrrolidin-1-yl)propoxy)-2,2′-dimethyl-[1,1′-biphenyl]-3-yl)oxy)propyl)amino)ethyl)acetamide]
0.0201 to 0.09 |  | Cc1c(OCCCN(C)CCC(N)=O)cccc1-c1cccc(OCCCN2CC[C@@H](O)C2)c1C [Example 2054, (R)-3-((3-((3′-(3-(3-hydroxypyrrolidin-1-yl)propoxy)-2,2′-dimethyl-[1,1′-biphenyl]-3-yl)oxy)propyl)(methyl)amino)propanamide]
0.0201 to 0.09 |  | Cc1c(OCCCNCCn2cc(Cl)cn2)cccc1-c1cccc(OCCCN2CC[C@@H](O)C2)c1C [Example 2060, (R)-1-(3-((3′-(3-((2-(4-chloro-1H-pyrazol-1-yl)ethyl)amino)propoxy)-2,2′-dimethyl-[1,1′-biphenyl]-3-yl)oxy)propyl)pyrrolidin-3-ol]
0.0201 to 0.09 |  | Cc1c(OCCCNCCc2ncn(C)c2Cl)cccc1-c1cccc(OCCCN2CC[C@@H](O)C2)c1C [Example 2061]
0.0201 to 0.09 |  | Cc1c(OCCCN(C)Cc2ccccn2)cccc1-c1cccc(OCCCN2CC[C@@H](O)C2)c1C [Example 2062, (R)-1-(3-((2,2′-dimethyl-3′-(3-(methyl(pyridin-2-ylmethyl)amino)propoxy)-[1,1′-biphenyl]-3-yl)oxy)propyl)pyrrolidin-3-ol]
0.0201 to 0.09 |  | Cc1c(OCCCN2CCN(CCO)CC2)cccc1-c1cccc(OCCCN2CC[C@@H](O)C2)c1C [Example 2063, (R)-1-(3-((3′-(3-(4-(2-hydroxyethyl)piperazin-1-yl)propoxy)-2,2′-dimethyl-[1,1′-biphenyl]-3-yl)oxy)propyl)pyrrolidin-3-ol]
0.0201 to 0.09 |  | Cc1c(OCCCN(C)Cc2ccncc2)cccc1-c1cccc(OCCCN2CC[C@@H](O)C2)c1C [Example 2064, (R)-1-(3-((2,2′-dimethyl-3′-(3-(methyl(pyridin-4-ylmethyl)amino)propoxy)-[1,1′-biphenyl]-3-yl)oxy)propyl)pyrrolidin-3-ol]
0.0201 to 0.09 |  | Cc1c(OCCCNCCc2ccc(N)cc2)cccc1-c1cccc(OCCCN2CC[C@@H](O)C2)c1C [Example 2065, (R)-1-(3-((3′-(3-((4-aminophenethyl)amino)propoxy)-2,2′-dimethyl-[1,1′-biphenyl]-3-yl)oxy)propyl)pyrrolidin-3-ol]
0.0201 to 0.09 |  | Cc1c(OCCCNC2CCN(CCO)CC2)cccc1-c1cccc(OCCCN2CC[C@@H](O)C2)c1C [Example 2067, (R)-1-(3-((3′-(3-((1-(2-hydroxyethyl)piperidin-4-yl)amino)propoxy)-2,2′-dimethyl-[1,1′-biphenyl]-3-yl)oxy)propyl)pyrrolidin-3-ol]
